Laboratory results: US20190135818A1 (SHANGHAI INSTITUTE OF MATERIA MEDICA, CHINESE ACADEMY OF …, priority 2016, published 2019)

Legend:
[1] = molecular target: T1, FGFR1 (Homo sapiens, UniProt P11362); test: FGFR kinase inhibitory activity experiment (ELISA, Poly(Glu,Tyr)4:1 substrate); format: biochemical; details: kinase recombinant protein FGFR1, ATP 5 μM
T1 construct: The reaction was initiated by addition of FGFR kinase domain recombinant protein diluted with 49 μL of reaction buffer; purchased Millipore 14-482
Protocol: Precision electronic balance (Sartotius, Cat. No. BP210D), adjustable wavelength microplate reader (Molecular Device, Cat. No. SpectraMax 190).
After the liquid was removed from the wells, the plate was washed for three times with 200 μL/well of T-PBS (PBS containing 0.1% Tween-20) for 5 minutes each time. The enzyme plate was dried at 37° C. in a dryer for 1-2 hours.
50 μL ATP solution diluted with reaction buffer (50 mM HEPES pH 7.4, 50 mM MgCl2, 0.5 mM MnCl2, 0.2 mM Na3VO4, 1 mM DTT) was added into each well at a 5 μM final concentration. The compounds were diluted to appropriate concentration in DMSO, 1 μL/well or containing the corresponding concentrations of DMSO (negative control wells). The reaction was initiated by addition of FGFR kinase domain recombinant protein diluted with 49 μL of reaction buffer. Two control wells without enzyme were set in each experiment. The plate was placed on a shaker (100 rpm) at 37° C. for 1 hour. The plate was washed with T-PBS for three times. 100 μL/well of primary antibody PY99 dilution was added, and incubated at 37° C. for 0.5 hour on a shaker (100 rpm). The plate was washed with T-PBS for three times. 100 μL/well of horseradish peroxidase-labeled secondary anti-goat anti-mouse IgG dilution was added and incubated at 37° C. for 0.5 hour on a shaker (100 rpm). The plate was washed with T-PBS for three times. 100 μL/well of 2 mg/mL OPD coloration solution (diluted with 0.1 M citric acid-sodium citrate buffer containing 0.03% H2O2 (pH=5.4)) was added, and incubated in darkness for 1-10 minutes at 25° C. The reaction was quenched with 50 μL/well 2M H2SO4, and read at 490 nm using a tunable microplate microplate reader SPECTRA MAX 190.
The inhibition ratio of the sample was determined by the following formula: […]
(§1) The IC50 values were obtained by four-parameter regression analysis using the software supplied with the microplate reader.

[2] = system: Human acute myeloid leukemia cell line KG1; test: FGFR-dependent tumor cell proliferation inhibition activity test (CCK-8, 72 h); format: cell-based
Text: Human acute myeloid leukemia cell line KG1 (FGFR1 fusion protein expressed in the cytoplasm, FGFR1-dependent tumor cell line) (ATCC, Cat. No. CCL-246), cell culture medium RPMI-1640 (Corning Cellgro, No. 10-040-CVR), fetal bovine serum (Life
Technologies, Cat. No. 10099-141) was purchased from the company; CCK-8 cell counting kit (DOJINDO, Cat. No. FK808). Adjustable wavelength microplate reader (Molecular Device, Cat. No. SpectraMax 190).
The inhibitory effect of the compound on KG1 proliferation was detected by CCK-8 Cell Counting Kit (Dojindo): Logarithmic growth phase cells were seeded in 96-well culture plate in appropriate density, 90 ul for each well. After cultured overnight, different concentrations of drugs were added and incubated for 72 h, while solvent control well was set (negative control). After the cells were treated by the compound for 72 h, 10 μL of CCK-8 reagent was added to each well. After incubated for 2-4 hours in a 37 □ incubator, the plate was read with SpectraMax 190 microplate reader at wavelength 450 nm.
The inhibition rate of compounds against cell proliferation is calculated by the following formula:
Inhibition rate (%)=(OD negative control well-OD administration well)/OD negative control well×100%.
as §1

T1 sequence (P11362 478-767 limits assumed): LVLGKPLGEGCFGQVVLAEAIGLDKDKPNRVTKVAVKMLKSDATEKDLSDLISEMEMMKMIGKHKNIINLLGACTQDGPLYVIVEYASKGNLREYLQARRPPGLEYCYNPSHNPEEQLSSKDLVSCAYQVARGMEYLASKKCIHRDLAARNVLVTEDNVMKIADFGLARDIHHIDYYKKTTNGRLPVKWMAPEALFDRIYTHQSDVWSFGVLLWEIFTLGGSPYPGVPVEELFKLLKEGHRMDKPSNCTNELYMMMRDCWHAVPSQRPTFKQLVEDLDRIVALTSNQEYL

Row | SMILES | IC50 [1] [nM] | IC50 ([2]; Homo sapiens, KG-1, KG1 cells) [nM] | IC50 ([2]; KG1 cells) [nM]
1 | Cc1ccc2oc(-c3c4c(N)n[nH]c(=O)c4nn3C3CCN(C(=O)/C=C/CN4CCC4)CC3)c(C)c2c1 [Compound A31, 4-amino-2-{1-[(2E)-4-(azetidin-1-yl)but-2-enoyl]piperidin-4-yl}-3-(3,5-dimethyl-1-benzofuran-2-yl)-2,6-dihydro-7H-pyrazolo[3,4-d]pyridazin-7-one] | < 100 | – | –
2 | CCC(=O)N1CCC(n2nc3c(=O)[nH]nc(N)c3c2-c2oc3ccc(C)cc3c2C)CC1 [Compound A10, 4-amino-3-(3,5-dimethyl-1-benzofuran-2-yl)-2-(1-propionylpiperidin-4-yl)-2,6-dihydro-7H-pyrazolo[3,4-d]pyridazin-7-one] | < 100 | 100 to 1000 | –
3 | Cc1ccc2oc(-c3c4c(N)n[nH]c(=O)c4nn3-c3ccccc3)c(C)c2c1 [Compound A4, 4-amino-3-(3,5-dimethyl-1-benzofuran-2-yl)-2-phenyl-2,6-dihydro-7H-pyrazolo [3,4-d]pyridazine-7-one] | – | 100 to 1000 | –
4 | C=CC(=O)N1CCC(n2nc3c(=O)[nH]nc(N)c3c2-c2oc3ccc(F)cc3c2C)CC1 [Compound A80, 2-(1-acryloylpiperidin-4-yl)-4-amino-3-(5-fluoro-3-methylbenzofuran-2-yl)-2,6-dihydro-7H-pyrazolo[3,4-d]pyridazin-7-one] | 100 to 1000 | 100 to 1000 | –
5 | Cc1ccc2oc(-c3c4c(N)n[nH]c(=O)c4nn3-c3ccc(NCN(C)C)cc3)c(C)c2c1 [Compound A9, 4-amino-3-(3,5-dimethyl-1-benzofuran-2-yl)-2-(4-{[(dimethylamino)methyl]amino}phenyl)-2,6-dihydro-7H-pyrazolo[3,4-d]pyridazin-7-one] | < 100 | 100 to 1000 | –
6 | CCN1CCC(n2nc3c(=O)[nH]nc(N)c3c2-c2oc3ccc(C)cc3c2C)CC1 [Compound A24, 4-amino-3-(3,5-dimethyl-1-benzofuran-2-yl)-2-(1-ethylpiperidin-4-yl)-2,6-dihy-dro-7H-pyrazolo[3,4-d]pyridazin-7-one] | < 100 | ≤ 100 | –
7 | C=CC(=O)N1CCC(n2nc3c(=O)[nH]nc(N)c3c2-c2oc3cc(C)ccc3c2C)CC1 [Compound A82, 2-(1-acryloylpiperidin-4-yl)-4-amino-3-(3,6-dimethylbenzofuran-2-yl)-2,6-dihy-dro-7H-pyrazole[3,4-d]pyridazin-7-one] | < 100 | ≤ 100 | –
8 | Cc1ccc2oc(-c3c4c(N)n[nH]c(=O)c4nn3-c3ccc(Cl)cc3)c(C)c2c1 [Compound A13, 4-amino-2-(4-chlorophenyl)-3-(3,5-dimethyl-1-benzofuran-2-yl)-2,6-dihydro-7H-pyrazolo[3,4-d]pyridazin-7-one] | < 100 | 100 to 1000 | –
9 | C=C(C#N)C(=O)N1CCC(n2nc3c(=O)[nH]nc(N)c3c2-c2oc3ccc(C)cc3c2C)CC1 [Compound A55, 2-({4-[4-amino-3-(3,5-dimethyl-1-benzo-furan-2-yl)-7-carbonyl-6,7-dihydro-2H-pyrazolo[3,4-d]pyridazin-2-yl]piperidin-1-yl}carbonyl)prop-2-enenitrile] | < 100 | ≤ 100 | –
10 | C=CC(=O)NC1CCC(n2nc3c(=O)[nH]nc(N)c3c2-c2oc3ccc(C)cc3c2C)CC1 (stereo not drawn) [Compound A88, N-(4-(4-amino-3-(3,5-dimethylbenzo-furan-2-yl)-7-carbonyl-6,7-dihydro-2H-pyrazolo[3,4-d]pyridazin-2-yl)cyclohexyl)acryloylamide] | < 100 | – | ≤ 100
11 | Cc1ccc2oc(-c3c4c(N)n[nH]c(=O)c4nn3-c3ccc(NC(=O)/C=C/CN4CCC4)cc3)c(C)c2c1 [Compound A27, (2E)-N-{4-[4-amino-3-(3,5-dimethyl-1-benzofuran-2-yl)-7-carbonyl-6,7-dihydro-2H-pyrazolo[3,4-d]pyridazin-2-yl]phenyl}-4-(azetidin-1-yl)but-2-enamide] | < 100 | ≤ 100 | –
12 | Cc1c(-c2c3c(N)n[nH]c(=O)c3nn2C2CCN(C(=O)/C=C/CNC3CC3)CC2)oc2ccc(Cl)cc12 [Compound A56, 4-amino-3-(5-chloro-3-methyl-1-benzo-furan-2-yl)-2-{1-[(2E)-4-(cyclopropyl-amino)but-2-enoyl]piperidin-4-yl}-2,6-dihydro-7H-pyrazolo[3,4-d]pyridazin-7-one] | < 100 | – | –
13 | Cc1ccc2oc(-c3c4c(N)n[nH]c(=O)c4nn3-c3ccc(N(C)CCN(C)C)cc3)c(C)c2c1 [Compound A11, 4-amino-2-(4-{[2-(dimethylamino)ethyl] (methyl)amino}phenyl)-3-(3,5-dimethyl-1-benzofuran-2-yl)-2,6-dihydro-7H-pyrazolo[3,4-d]pyridazin-7-one] | < 100 | 100 to 1000 | –
14 | C=CC(=O)N1CCC(n2nc3c(=O)[nH]nc(N)c3c2-c2oc3cc(Cl)ccc3c2C)CC1 [Compound A84, 2-(1-acryloylpiperidin-4-yl)-4-amino-3-(6-chloro-3-methylbenzofuran-2-yl)-2,6-dihydro-7H-pyrazolo[3,4-d]pyridazine-7-one] | < 100 | ≤ 100 | –
15 | C=CC(=O)N1CCCC(n2nc3c(=O)[nH]nc(N)c3c2-c2oc3ccc(Cl)cc3c2C)C1 (stereo not drawn) [Compound A87, 2-(1-acryloylpiperidin-3-yl)-4-amino-3-(5-chloro-3-methylbenzofuran-2-yl)-2,6-dihydro-7H-pyrazolo[3,4-d]pyridazine-7-one] | < 100 | ≤ 100 | –
16 | C=CC(=O)N1CCCC(n2nc3c(=O)[nH]nc(N)c3c2-c2oc3ccc(OC)cc3c2C)C1 (stereo not drawn) [Compound A79, 2-(1-acryloylpiperidin-3-yl)-4-amino-3-(5-methoxy-3-methylbenzofuran-2-yl)-2,6-dihydro-7H-pyrazolo[3,4-d] pyridazin-7-one] | < 100 | ≤ 100 | –
17 | C=CC(=O)NC1CCC(n2nc3c(=O)[nH]nc(N)c3c2-c2oc3ccc(C)cc3c2C)CC1 (stereo not drawn) [Compound A33, N-{4-[4-amino-3-(3,5-dimethyl-1-benzo-furan-2-yl)-7-carbonyl-6,7-dihydro-2H-pyrazolo[3,4-d]pyridazin-2-yl]cyclohexyl}prop-2-enamide] | < 100 | ≤ 100 | –
18 | C=CC(=O)N1CCC(Cn2nc3c(=O)[nH]nc(N)c3c2-c2oc3ccc(C)cc3c2C)CC1 [Compound A38, 2-[(1-acryloylpiperidin-4-yl)methyl]-4-amino-3-(3,5-dimethyl-1-benzofuran-2-yl)-2,6-dihydro-7H-pyrazolo[3,4-d]pyridazin-7-one] | < 100 | – | –
19 | Cc1ccc2oc(-c3c4c(N)n[nH]c(=O)c4nn3C3CCN(C(=O)/C=C/CN(C)C4CC4)CC3)c(C)c2c1 [Compound A34, 4-amino-2-(1-{(2E)-4-[cyclopropyl (methyl)amino]but-2-enoyl}piperidin-4-yl)-3-(3,5-dimethyl-1-benzofuran-2-yl)-2,6-dihydro-7H-pyrazolo[3,4-d] pyridazin-7-one] | < 100 | – | –
20 | Cc1ccc2oc(-c3c4c(N)n[nH]c(=O)c4nn3C3CCN(CCN(C)C)CC3)c(C)c2c1 [Compound A36, 4-amino-2-{1-[2-(dimethylamino)ethyl]piperidin-4-yl}-3-(3,5-dimethylbenzofuran-2-yl)-2H-pyrazolo[3,4-d]pyridazin-7(6H)-one] | < 100 | – | –
21 | C=CC(=O)N1CC(Cn2nc3c(=O)[nH]nc(N)c3c2-c2oc3ccc(C)cc3c2C)C1 [Compound A45, 2-[(1-acryloylazetidin-3-yl)methyl]-4-amino-3-(3,5-dimethyl-1-benzofuran-2-yl)-2,6-dihydro-7H-pyrazolo[3,4-d] pyridazin-7-one] | < 100 | – | –
22 | C=CC(=O)Nc1ccc(-n2nc3c(=O)[nH]nc(N)c3c2-c2oc3ccc(C)cc3c2C)cc1N(C)CCN(C)C [Compound A32, N-(4-[4-amino-3-(3,5-dimethyl-1-benzo-furan-2-yl)-7-carbonyl-6,7-dihydro-2H-pyrazolo[3,4-d]pyridazin-2-yl]-2-{[(dimethylamino)ethyl](methyl)amino}phenyl)prop-2-enamide] | < 100 | – | –
